Laboratory results published in patent US20150231090A1 (Hong Kong Baptist University, priority 2013, published 2015).

Experiment: Toxicity of Guttiferone K in vivo
Design: species or system BALB/c male mice
Conditions: 1, 3, 10 mg/kg i.p. for 28 days

CC(C)=CCC[C@@]1(C)[C@H](CC=C(C)C)C[C@]2(CC=C(C)C)C(=O)[C@@]1(CC=C(C)C)C(=O)C(C(=O)c1ccc(O)c(O)c1)=C2O [Guttiferone K]
organ size and cell morphology of target organs (brain, heart, lung, liver, spleen, kidney): no evidence of organ size and cell morphology of target organs
